What all share (type): cell-based
For assay [1], the system named is Chronic Lymphocytic Leukemia patient samples. Nature of the assay: CellTiter-Glo (CTG) cell proliferation assay, 72 hours. Conditions: Homo sapiens, Chronic Lymphocytic Leukemia patient samples (n = 3). How it is done: Table, Table 2 and Table 3. Human normal donor PBMCs and chronic lymphoid leukemia (CLL) patient blasts were obtained from AllCells, LLC (Alameda, Calif.).
Preparation of Solutions of Test Article: Compounds were plated into black 384-well plates (Corning Inc.) to a final DMSO volume of 0.1% assuming a maximal volume of 50 μL. A 10-point dose response starting at 10 μM with a 1:3 dilution was printed in duplicate by acoustic dispense using the EDC ATS-100 platform.
Cell Proliferation Assays: The effect of Compound 1 on the proliferation/viability of the hematological cell lines (Table 1 Table, Table 2 and Table 3), THLE-2, or PBMCs was assessed after 72 hours incubation using CTG (Promega), according to manufacturer's instructions. Hematological cell lines were dispensed into compound plates by a Multidrop™ Combi Reagent Dispenser (Thermo Scientific, Waltham, Mass.) at a concentration of 0.1 to 0.3×10^6 cells per mL in a 50 μL total volume. THLE-2 cells were seeded out at 1000 cells per well in 50 μL volume and incubated for 72 hours. At 72 hours, 25 μL per well of CTG was dispensed by a Multidrop™ Combi Reagent Dispenser and adenosine triphosphate (ATP) release by viable cells was measured as relative luminescence units after 30 minutes using the Envision platform.
A general note: Cellular ATP, detected with luciferase, serves as a proxy for viable cell number.

The next assay has as its system Nomo-1. Nature of the assay: IncuCyte live cell imaging of cell viability, Red-labeled cell line. Conditions: Homo sapiens, Red-labeled NOMO-1, read-out: Inhibition of Cell Viability EC50. Here is the method: (§1) Derivation of Red-labeled Acute Myeloid Leukemia Cell Lines: Twelve cell lines, including AML-193, HL-60, KG-1, ML-2, MOLM-13, MV-4-11, NOMO-1, OCI-AML2, OCI-AML3, SIG-M5, TF-1, and THP-1, were stably transduced with Red lentivirus. Cells were plated in 6-well plates in growth media, incubated with 8 µg/mL polybrene (EMD Millipore Cat no. TR-1003-G) followed by infection with CellPlayer™ NucLight™ Red-lentiviral particles (Essen Biosciences Cat no. 4478) at a multiplicity of infectivity (MOI) of 0.5 to 2.5 for 24 hours. MOI refers to the ratio of virus particles to cells. Virus-containing media was replaced with fresh growth media and incubated for an additional 24 to 48 hours, followed by selection with Zeocin (500 to 2000 μg/mL), a derivative of bleomycin (Life Technologies-Invitrogen Cat no. R250-01). Cells were selected with fresh Zeocin every 3 to 4 days for 3 to 8 weeks. Cells were periodically viewed using fluorescent microscopy for nuclear-restricted red fluorescence. Zeocin selection was terminated once the population was confirmed to stably fluoresce red. All Red-labeled cell lines were acclimated to EMEM containing 20% FBS, with or without GM-CSF supplementation, allowing for optimal live cell imaging.
(§2) Incubation of Cell Cultures with Compound 1: Compound 1 was provided for studies by Celgene chemistry group at a stock concentration of 30 mM in 20 μL dimethyl sulfoxide (DMSO) frozen. Costar 96-well cell culture plates (Corning Cat no. 3595) were coated with 100 μL of 10 µg/mL fibronectin (Sigma-Aldrich Cat no. F1141) for 4 hours at 37° C. and immediately used or refrigerated overnight for later use. Cells (3000 to 6000 cells) were plated in growth medi in fibronectin-coated 96-well plates and incubated for a minimum of a few hours to overnight. Cells were incubated with a 12-point concentration response in triplicate with Compound 1 ([…]) including DMSO and Media controls. A 3-fold serial dilution of Compound 1 starting from a concentration of 200 μM in 0.6% DMSO (diluted in Media) was performed. For most sensitive cell lines, a 3-fold serial dilution of Compound 1 starting from a concentration of 20 μM in 0.6% DMSO (diluted in media) was performed. A volume of 5 μL or 10 μL for each dilution was added to 100 μL or 200 μL cells, respectively (0.3% DMSO final) and incubated for live cell imaging.
(§3) Live Cell Imaging on IncuCyte Zoom: Following incubation of cells with Compound 1, diluted Caspase 3/7 reagent (Essen Biosciences Cat no. 4440) is added to each well. The Caspase-3/7 reagent couples the activated caspase-3/7 recognition motif (DEVD) to NucView™488, a DNA intercalating dye. The cleavage of substrate by activated caspase-3/7 results in the release of the DNA dye and green fluorescent staining of nuclear DNA. This allows imaging of cells undergoing caspase-3/7 mediated apoptosis over time. Caspase-3/7 activation was quantified using the IncuCyte™ ZOOM basic analyzer. Red-labeled cell lines were also imaged over time using the IncuCyte™ ZOOM basic analyzer, for determination of both cell doubling time and Compound 1 effect on cell viability. Experiments were performed at least two times in each cell line.
(§4) Next, a 4 parameter log-logistic model was used to determine relative EC50 at each time point by the ‘drm’ function from the R ‘drc’ package (Ritz C, Streibig J C. Bioassay Analysis using R. J. Statist. Software 2005; 12(5):1-22). Goodness of fit was measured by R squared (coefficient of determination or the amount of variation explained by the model fit) of ≥80%, and EC50 parameter was assessed by having a ratio of standard error to the parameter of ≤40%, and the presence of at least one concentration point above and below the reported EC50.
(§5) Twelve Red-labeled human AML cell lines, established as described above, were incubated with Compound 1 dose range (0 to 10 μM) and Red fluorescence or Object count was imaged over time, as described above. […]

Another assay relates to THP-1. Described as above. As to conditions: Homo sapiens; Red-labeled THP-1; 96 hr; read-out: Inhibition of Cell Viability EC50. How it is done:
as §1, §2, §3, §4, §5

A further assay has as its system ML-2. Described as above. Conditions: Homo sapiens, Red-labeled ML-2, read-out: Inhibition of Cell Viability EC50. How it is done:
as §1, §2, §3, §4, §5

The test system of the next assay is MOLM-13. The assay is described as above. Conditions: Homo sapiens, Red-labeled MOLM-13, read-out: Inhibition of Cell Viability EC50. Here is the method: as §1, §2, §3, §4, §5
Another assay has as its system TF-1. Described as above. As to conditions: Homo sapiens, Red-labeled TF-1, read-out: Inhibition of Cell Viability EC50. Here is the method:
as §1, §2, §3, §4, §5

A further assay relates to OCI-AML3. The assay is described as above. As to conditions: Homo sapiens, read-out: Inhibition of Cell Viability EC50. How it is done:
as §1, §2, §3, §4, §5

In a further assay the test system is KG-1. Described as above. Conditions: Homo sapiens, Red-labeled KG-1, read-out: Inhibition of Cell Viability EC50. How it is done: as §1, §2, §3, §4, §5

Where two headings read alike, the source gives them in different places.

Take `O=C1CCC(N2Cc3cc(CNC(=O)C(F)(F)c4ccc(Cl)cc4)ccc3C2=O)C(=O)N1` (stereo not drawn) [Compound 1, 2-(4-chlorophenyl)-N-((2-(2,6-dioxopiperidin-3-yl)-1-oxoisoindolin-5-yl)methyl)-2,2-difluoroacetamide]: in assay [1], it took 10 nM to reach half-maximal inhibition (IC50). The EC50 (in general, the concentration needed to bring the measured effect to its halfway point) in the assay on Nomo-1 (48 hr) stood at 19 nM; in the assay on Nomo-1 (72 hr) it was 17 nM; in the assay on Nomo-1 (96 hr), 17 nM; in the assay on THP-1, 61 nM; in the assay on ML-2 (72 hr), 4 nM; with ML-2 (96 hr) it was 4 nM. Also, the EC50 with MOLM-13 (48 hr) stood at 143 nM; in the assay with MOLM-13 (72 hr), 208 nM; in the assay with MOLM-13 (96 hr) it was 248 nM; with TF-1 (48 hr) it was 30 nM; in the assay with TF-1 (72 hr), 36 nM; with TF-1 (96 hr), 58 nM. In addition, the EC50 in the assay on OCI-AML3 (OCI-AML-3, 72 hr) came out at 180 nM; in the assay with OCI-AML3 (OCI-AML-3, 96 hr), 186 nM; in the assay with KG-1 (48 hr), 7 nM; in the assay on KG-1 (72 hr), 7 nM; in the assay with KG-1 (96 hr), 7 nM.
